Results published in patent publication US7001983B1, “Antipathogenic synthetic peptides and compositions comprising them” (priority 1997, dated 2006).
Square brackets hold non-standard residues; d marks the D form. Peptide text beside a SMILES is read from it.

Legend:
Format in all cases: cell-based
[1] = system: Acinetobacter calcoaceticus Ac11; conditions: 100% inhibition of growth after 18–20 h
Escherichia coli D21 = conditions: 100% inhibition of growth after 18–20 h
[2] = system: human red blood cells (hRBC); test: Hemolysis of human red blood cells; conditions: hRBC, 30 min at 37° C.
Protocol: (ix) Hemolysis of human red blood cells. The peptides were tested for their hemolytic activities against human red blood cells (hRBC). Fresh hRBC with EDTA were rinsed 3 times with PBS (35 mM phosphate buffer/0.15 M NaCl, pH 7.3) by centrifugation for 10 min at 800 g and resuspended in PBS. Peptides dissolved in PBS were then added to 50 μL of a solution of the stock hRBC in PBS to reach a final volume of 100 μL (final erythrocyte concentration, 5% v/v). The resulting suspension was incubated under agitation for 30 min at 37° C. The samples were then centrifuged at 800 g for 10 min. Release of hemoglobin was monitored by measuring the absorbance of the supernatant at 540 nm. Controls for zero hemolysis (blank) and 100% hemolysis consisted of hRBC suspended in PBS and Triton 1%, respectively.

Bacillus megaterium Bm11 = conditions: 100% inhibition of growth after 18–20 h

## CC[C@H](C)[C@H](NC(=O)[C@H](CCCCN)NC(=O)[C@H]1CCCN1C(=O)[C@@H](NC(=O)[C@H](CC(C)C)NC(=O)[C@H](C)NC(=O)[C@H](Cc1ccccc1)NC(=O)[C@H](Cc1ccccc1)NC(=O)CN)[C@@H](C)CC)C(=O)N[C@H](C(=O)N[C@@H](CO)C(=O)N[C@@H](CO)C(=O)N1CCC[C@H]1C(=O)N[C@@H](CC(C)C)C(=O)N[C@@H](Cc1ccccc1)C(=O)N[C@@H](CCCCN)C(=O)N[C@H](C(=O)N[C@H](CC(C)C)C(=O)N[C@H](CC(C)C)C(=O)N[C@@H](CO)C(=O)N[C@@H](C)C(=O)N[C@H](C(=O)NCCN)C(C)C)[C@@H](C)O)[C@@H](C)CC [Peptide 2, [D]P^7L^18L^19[1-22]-TApar]
[1]
  Minimal Inhibitory Concentration A. calcoaceticus (Ac11): 12.5 µM
Escherichia coli D21
  Minimal Inhibitory Concentration E. coli (D21): 12.5 µM
[2]
  % hemolysis at 50 μM peptide: 0%
Bacillus megaterium Bm11
  Minimal Inhibitory Concentration B. megaterium (Bm11): 2.5 µM

## CC[C@H](C)[C@H](NC(=O)[C@H](CCCCN)NC(=O)[C@H]1CCCN1C(=O)[C@@H](NC(=O)[C@H](CC(C)C)NC(=O)[C@H](C)NC(=O)[C@H](Cc1ccccc1)NC(=O)[C@H](Cc1ccccc1)NC(=O)CNC(=O)[C@@H](N)CCCCN)[C@@H](C)CC)C(=O)N[C@H](C(=O)N[C@@H](CO)C(=O)N[C@@H](CO)C(=O)N1CCC[C@H]1C(=O)N[C@@H](CC(C)C)C(=O)N[C@@H](Cc1ccccc1)C(=O)N[C@@H](CCCCN)C(=O)N[C@H](C(=O)N[C@H](CC(C)C)C(=O)N[C@H](CC(C)C)C(=O)N[C@@H](CO)C(=O)N[C@@H](C)C(=O)N[C@H](C(=O)NCCN)C(C)C)[C@@H](C)O)[C@@H](C)CC [Peptide 4, K^1[D]P^7L^18L^19[1-22]-TApar]
[1]
  Minimal Inhibitory Concentration A. calcoaceticus (Ac11): 7.5 µM
Escherichia coli D21
  Minimal Inhibitory Concentration E. coli (D21): 7.5 µM
[2]
  % hemolysis at 50 μM peptide: 0%
Bacillus megaterium Bm11
  Minimal Inhibitory Concentration B. megaterium (Bm11): 1.5 µM

## CC[C@H](C)[C@H](NC(=O)[C@H](CCCCN)NC(=O)[C@H]1CCCN1C(=O)[C@@H](NC(=O)[C@H](CC(C)C)NC(=O)[C@H](C)NC(=O)[C@H](Cc1ccccc1)NC(=O)[C@H](Cc1ccccc1)NC(=O)CNC(=O)[C@H](CCCCN)NC(=O)[C@@H](N)CCCCN)[C@@H](C)CC)C(=O)N[C@H](C(=O)N[C@@H](CO)C(=O)N[C@@H](CO)C(=O)N1CCC[C@H]1C(=O)N[C@@H](CC(C)C)C(=O)N[C@@H](Cc1ccccc1)C(=O)N[C@@H](CCCCN)C(=O)N[C@H](C(=O)N[C@H](CC(C)C)C(=O)N[C@H](CC(C)C)C(=O)N[C@@H](CO)C(=O)N[C@@H](C)C(=O)N[C@H](C(=O)NCCN)C(C)C)[C@@H](C)O)[C@@H](C)CC [Peptide 5, K^1K^2[D]P^7L^18L^19[1-22]-TApar]
[1]
  Minimal Inhibitory Concentration A. calcoaceticus (Ac11): 3.5 µM
Escherichia coli D21
  Minimal Inhibitory Concentration E. coli (D21): 3.5 µM
[2]
  % hemolysis at 50 μM peptide: 0%
Bacillus megaterium Bm11
  Minimal Inhibitory Concentration B. megaterium (Bm11): 0.75 µM

## CC(C)[C@H](NC(=O)[C@H](CCCCN)NC(=O)[C@H](NC(=O)[C@H](NC(=O)[C@@H](NC(=O)[C@@H](N)CCCCN)C(C)C)C(C)C)C(C)C)C(=O)N[C@H](C(=O)N[C@@H](C(=O)N[C@@H](CCCCN)C(=O)N[C@@H](C(=O)N[C@H](C(=O)N[C@@H](CCCCN)C(N)=O)C(C)C)C(C)C)C(C)C)C(C)C [Peptide 34, [D]-V^3,4,8,10-K4V8] (H-KV[dV][dV]KVV[dV]K[dV]VK-NH2)
Escherichia coli D21
  Minimal Inhibitory Concentration E. coli (D21): 3.5 µM
[2]
  % hemolysis at 100 μM: 0%
Bacillus megaterium Bm11
  Minimal Inhibitory Concentration B. megaterium (Bm11): 0.8 µM

## CC[C@H](C)[C@@H]1NC(=O)[C@H](CCCCN)NC(=O)[C@H]2CCCN2C(=O)[C@H]([C@@H](C)CC)NC(=O)[C@H](CC(C)C)NC(=O)[C@H](C)NC(=O)[C@H](Cc2ccccc2)NC(=O)[C@H](Cc2ccccc2)NC(=O)CNC(=O)[C@H](CCCCN)NC(=O)[C@@H](N)CSSC[C@@H](C(=O)O)NC(=O)[C@H](C(C)C)NC(=O)[C@H](C)NC(=O)[C@H](CO)NC(=O)[C@@H](CC(C)C)NC(=O)[C@@H](CC(C)C)NC(=O)[C@H]([C@@H](C)O)NC(=O)[C@H](CCCCN)NC(=O)[C@H](Cc2ccccc2)NC(=O)[C@H](CC(C)C)NC(=O)[C@@H]2CCCN2C(=O)[C@H](CO)NC(=O)[C@H](CO)NC(=O)[C@H]([C@@H](C)CC)NC1=O [Peptide 86, Cyclic K^1[D]P^7L^18L^19[1-22]-par]
Escherichia coli D21
  Minimal Inhibitory Concentration E. coli (D21): 30 µM
[2]
  % hemolysis at 100 μM: 0%
Bacillus megaterium Bm11
  Minimal Inhibitory Concentration B. megaterium (Bm11): 10 µM

## CC[C@H](C)[C@@H]1NC(=O)[C@H](CCCCN)NC(=O)[C@H]2CCCN2C(=O)[C@H]([C@@H](C)CC)NC(=O)[C@H](CC(C)C)NC(=O)[C@H](C)NC(=O)[C@H](Cc2ccccc2)NC(=O)[C@H](Cc2ccccc2)NC(=O)CNC(=O)[C@H](CCCCN)NC(=O)[C@H](CCCCN)NC(=O)[C@@H](N)CSSC[C@@H](C(=O)O)NC(=O)[C@H](C(C)C)NC(=O)[C@H](C)NC(=O)[C@H](CO)NC(=O)[C@@H](CC(C)C)NC(=O)[C@@H](CC(C)C)NC(=O)[C@H]([C@@H](C)O)NC(=O)[C@H](CCCCN)NC(=O)[C@H](Cc2ccccc2)NC(=O)[C@H](CC(C)C)NC(=O)[C@@H]2CCCN2C(=O)[C@H](CO)NC(=O)[C@H](CO)NC(=O)[C@H]([C@@H](C)CC)NC1=O [Peptide 87, Cyclic K^1K^2[D]P^7L^18L^19[1-22]-par]
Escherichia coli D21
  Minimal Inhibitory Concentration E. coli (D21): 15 µM
[2]
  % hemolysis at 100 μM: 0%
Bacillus megaterium Bm11
  Minimal Inhibitory Concentration B. megaterium (Bm11): 6 µM

## CC[C@H](C)[C@@H]1NC(=O)[C@H](CCCCN)NC(=O)[C@H]2CCCN2C(=O)[C@H]([C@@H](C)CC)NC(=O)[C@H](CC(C)C)NC(=O)[C@H](C)NC(=O)[C@H](Cc2ccccc2)NC(=O)[C@H](Cc2ccccc2)NC(=O)CNC(=O)[C@H](CCCCN)NC(=O)[C@H](CCCCN)NC(=O)[C@H](CCCCN)NC(=O)[C@@H](N)CSSC[C@@H](C(=O)O)NC(=O)[C@H](C(C)C)NC(=O)[C@H](C)NC(=O)[C@H](CO)NC(=O)[C@@H](CC(C)C)NC(=O)[C@@H](CC(C)C)NC(=O)[C@H]([C@@H](C)O)NC(=O)[C@H](CCCCN)NC(=O)[C@H](Cc2ccccc2)NC(=O)[C@H](CC(C)C)NC(=O)[C@@H]2CCCN2C(=O)[C@H](CO)NC(=O)[C@H](CO)NC(=O)[C@H]([C@@H](C)CC)NC1=O [Peptide 88, Cyclic K^1K^2K^3[D]P^7L^18L^19[1-22]-par]
Escherichia coli D21
  Minimal Inhibitory Concentration E. coli (D21): 7.5 µM
[2]
  % hemolysis at 100 μM: 0%
Bacillus megaterium Bm11
  Minimal Inhibitory Concentration B. megaterium (Bm11): 2 µM
